Here are results for 7 molecules from patent US8921394B2, “Prolylcarboxypeptidase inhibitors” (Merck Sharp & Dohme Corp., priority 2010, dated 2014).

Where a name gives a salt, the structure may show the parent alone. Read-outs that look alike come from different tables or passages of the source.

The target of experiment [1] is T1, human PrCP (Homo sapiens, UniProt P42785).
T1 construct: made in house
T1 sequence (P42785 46-496): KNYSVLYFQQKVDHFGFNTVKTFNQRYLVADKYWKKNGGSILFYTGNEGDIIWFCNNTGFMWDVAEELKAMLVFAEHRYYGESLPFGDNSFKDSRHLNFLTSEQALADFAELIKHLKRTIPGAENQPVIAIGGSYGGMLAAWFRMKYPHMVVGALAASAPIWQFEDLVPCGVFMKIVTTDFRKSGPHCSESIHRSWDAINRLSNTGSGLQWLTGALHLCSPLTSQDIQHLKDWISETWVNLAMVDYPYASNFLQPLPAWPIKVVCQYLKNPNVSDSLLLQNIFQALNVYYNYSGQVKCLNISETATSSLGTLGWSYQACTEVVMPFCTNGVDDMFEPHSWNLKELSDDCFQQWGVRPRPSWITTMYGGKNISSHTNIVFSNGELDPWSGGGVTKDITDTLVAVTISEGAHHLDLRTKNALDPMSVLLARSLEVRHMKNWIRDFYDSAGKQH
Description: Prolylcarboxypeptidase (PRCP) enzyme activity assay, fluorescence intensity kinetic assay. Type of experiment: biochemical. Here is the method:
The potency of compounds of formula I against PrCP was determined by a fluorescence intensity kinetic assay measuring the IC50 values of PrCP inhibitor test compounds. […] The assay was run on a Perkin. […] The assay was performed using a Hamilton Star liquid handling workstation. The assay employed the internally quenched fluorescent substrate (1S)-1-carboxy-5-[(2,4-dinitrophenyl)amino]pentyl [(7-methoxy-2-oxo-2H-chromen-4-yl)acetyl]-L-alanyl-L-prolinate prepared in house. The assay was run in a 384-well microtiter plate at 37° C. with a total volume of 50 uL. […] The assay also contained 2% DMSO used to solubilize the substrate and inhibitor. Inhibitors were prepared in 100% DMSO and serial diluted (in 100% DMSO) to generate 11 point titration curves. Either 39 uL of human or mouse PrCP enzyme was added to the wells of the assay plate, followed by a 1 uL addition of the serially diluted inhibitor and mixed three times using a 30 uL mix volume. The reaction was initiated by the addition of 10 uL substrate and mixed three times using a 30 uL mix volume. The reactions were monitored continuously over 25 min at 37° C. to obtain initial velocities. IC50 values were calculated by comparing the resulting rates of reaction of the inhibited and control initial velocities.
The enzymes were diluted in a mixture of 10 mM NaOAc (pH 5.5)/100 mM NaCl buffer containing 25 ug/mL bovine serum albumin that had been warmed to 37° C. in a water bath. The PrCP inhibitor test compounds were plated in 100% DMSO with a highest concentration of 500 uM. There were 12 dilution points for each compound tested including a blank with DMSO only. […] Likewise, two control compounds were similarly titrated and included in each assay, with final starting concentrations starting at 10,000 nM and 200 nM, respectively. […] The substrate was solubilized in 100% DMSO prior to dilution into the assay.

For experiment [2] the following is noted: intracerebroventricular to rats; cited from earlier work.
For experiment [3] the following is noted: systemic administration to obese, leptin deficient mice; cited from earlier work.
Where [4] appears, read: recombinant human PrCP, cell line CHO, read-out: Human PRCP Enzyme Inhibition IC50.

With `Fc1ccc(-c2cc([C@@H]3CCN(CCc4ccccc4)C[C@H]3c3ccc(F)cc3)n[nH]2)cc1` (relative stereo) [Example 11, (3R*,4R*)-3-(4-fluorophenyl)-4-[5-(4-fluorophenyl)-1H-pyrazol-3-yl]-1-phenethyl-piperidine trifluoroacetate salt], in experiment [1] (setting [4]), the IC50 was found to be 2.3 nM. Take `N#Cc1cccc(-c2cc([C@@H]3CCN(CCc4ccccc4)C[C@H]3c3ccc(F)cc3)n[nH]2)c1` (relative stereo) [Example 12, 3-[3-[(3R*,4R*)-3-(4-fluorophenyl)-1-phenethyl-4-piperidyl]-1H-pyrazol-5-yl]benzonitrile triflizoroacetate salt]: the IC50 in experiment [1] (setting [4]) was found to be 7.9 nM.

On to `Fc1ccc([C@@H]2CN(CCc3ccccc3)CC[C@H]2c2n[nH]c(-c3ccc(Cl)cc3)n2)cc1` (relative stereo) [Example 20, (3R*,4R*)-4-[5-(4-chlorophenyl)-1H-1,2,4-triazol-3-yl]-3-(4-fluorophenyl)-1-phenethyl-piperidine trifluoroacetate salt], for which, in experiment [1] (setting [4]), the IC50 worked out at 50.9 nM.

Regarding `Cn1nc(C2(c3ccccn3)CCN(CCc3ccccc3)CC2)cc1-c1ccc(F)cc1` [Example 3, 2-[4-[5-(4-fluorophenyl)-1-methyl-pyrazol-3-yl]-1-phenethyl-4-piperidyl]pyridine bis(trifluoroacetate) salt], the half-inhibitory concentration (IC50) in experiment [1] was 498 nM. In the case of `Clc1ccc(CCN2CCC(c3ccccc3)(c3cc(-c4ccc(Cl)cc4)[nH]n3)CC2)cc1` [Example 6, 1-[2-(4-chlorophenyl)ethyl]-4-[5-(4-chlorophenyl)-1H-pyrazol-3-yl]-4-phenyl-piperidine trifluoroacetate salt], half-maximal inhibition in experiment [1] (IC50) required 175 nM. Take `CC(C)(C)N1C[C@@H](c2cc(-c3ccc(Cl)cc3)[nH]n2)[C@H](c2ccc(F)cc2F)C1` [Example 13, 3-[(3S,4R)-1-tert-butyl-4-(2,4-difluorophenyl)pyrrolidin-3-yl]-5-(4-chlorophenyl)-1H-pyrazole trifluoroacetate salt]: the IC50 in experiment [1] (recombinant human PrCP, cell line HEK, read-out: Human PRCP Enzyme Inhibition IC50) stood at 413 nM. With t-butyl carbamate-prolyl prolinal [BPP], the overnight food intake entry in experiment [2] and in experiment [3] was “suppression of overnight food intake” each time.
